Experimental data reported in patent US20110152089A1, “HERBICIDAL COMPOSITIONS COMPRISING FLUFENACET” (Bayer CropScience AG, priority 2009, published 2011).

How the values were obtained:
HORVS [1] = test: Activity with different soil types, crop selectivity, greenhouse (Table 5); format: in vivo, Hordeum vulgare, summer barley; details: g of AS/ha: (A) 90, (B) 300, (C) 140, (A)+(B)+(C) 90 + 300 + 140; for activity HORVS IU soil (crop plant): IU soil (loamy silt standard field soil); for activity HORVS IU/EC73 soil (crop plant): IU/EC73 soil (heavy soil, higher organic substance)
Procedure: (§1) In the standard design of the test, seeds of various broad-leaved weed and weed grass biotypes (origins) were sown in a 8-13 cm diameter pot filled with natural soil of a standard field soil (loamy silt; non-sterile) and covered with a covering soil layer of about 1 cm. The pots were then cultivated in a greenhouse (12-16 h of light, temperature day 20-22° C., night 15-18° C.) until the time of application. The pots were treated on a laboratory track sprayer with spray liquors comprising the compositions according to the invention, mixtures of the prior art or components used individually. Application of the active compounds or active compound combinations formulated as WG, WP, EC or otherwise was carried out at the appropriate growth stages of the plants. The application rate for the spray application was 100-600 l of water/ha. After the treatment, the plants were returned to the greenhouses.
(§2) About 3 weeks after the application, the soil action or/and foliar action was assessed visually according to a scale of 0-100% in comparison to an untreated comparative group: 0%=no noticeable effect compared to the untreated comparative group; 100%=full effect compared to the untreated comparative group.
(§3) (notes: the term “seeds” also includes vegetative propagation forms such as, for example, rhizome pieces; abbreviations used: h light=hours of illumination, g of AS/ha=gram of active substance per hectare, l/ha=liter per hectare, S=sensitive, R=resistant) • 1. Pre-emergence action against weeds: seeds of various broad-leaved weed and weed grass biotypes (origins) were sown in a 8-13 cm diameter pot filled with natural soil of a standard field soil (loamy silt; non-sterile) and covered with a covering soil layer of about 1 cm. The pots were then cultivated in a greenhouse (12-16 h of light, temperature day 20-22° C., night 15-18° C.) until the time of application. The pots were treated at the BBCH stage 00-10 of the seeds/plants on a laboratory track sprayer with spray liquors comprising the compositions according to the invention, mixtures or components used individually, as WG, WP, EC or other formulations. The application rate for the spray application was 100-600 l of water/ha. After the treatment, the plants were returned to the greenhouses and, when required, treated with fertilizer and watered. • 2. Post-emergence action against weeds: seeds of various broad-leaved weed and weed grass biotypes (origins) were sown in a 8-13 cm diameter pot filled with natural soil of a standard field soil (loamy silt; non-sterile) and covered with a covering soil layer of about 1 cm. The pots were then cultivated in a greenhouse (12-16 h of light, temperature day 20-22° C., night 15-18° C.) until the time of application. The pots were treated at various BBCH stages between 11-25 of the seeds/plants, i.e. generally between two to three weeks after the start of the cultivation, on a laboratory track sprayer with spray liquors comprising the compositions according to the invention, mixtures or components used individually, as WG, WP, EC or other formulations. The application rate for the spray application was 100-600 l of water/ha. After the treatment, the plants were returned to the greenhouses and, when required, treated with fertilizer and watered. • 3. Pre-emergence action against weeds with and without incorporation of active compound: seeds of various broad-leaved weed and weed grass biotypes (origins) were sown in a 8-13 cm diameter pot filled with natural soil of a standard field soil (loamy silt; non-sterile). […]

HORVS [2] = test: PE application with different irrigation, crop selectivity, greenhouse (Table 4); format: in vivo, Hordeum vulgare, summer barley; details: g of AS/ha: (A) 90, (B) 300, (C) 140, (A)+(B)+(C) 90 + 300 + 140
Procedure: as §1, §2, §3

STEME = test: Activity with different soil types, greenhouse (Table 5); format: in vivo, Stellaria media; details: g of AS/ha: (A) 90, (B) 300, (C) 140, (A)+(B)+(C) 90 + 300 + 140; for activity STEME IU soil: IU soil (loamy silt standard field soil); for activity STEME IU/EC73 soil: IU/EC73 soil (heavy soil, higher organic substance)
Procedure: as §1, §2, §3

HORVS [3] = test: PE application vs pre-sowing application, crop selectivity, greenhouse (Table 3); format: in vivo, Hordeum vulgare, summer barley; details: g of AS/ha: (A) 90, (B) 300, (C) 140, (A)+(B)+(C) 90 + 300 + 140
Procedure: as §1, §2, §3

VIOAR = test: PE soil application vs incorporation into the soil, greenhouse (Table 1); format: in vivo, Viola arvensis; details: g of AS/ha: (A) 90, (B) 300, (C) 70, (A)+(B)+(C) 90 + 300 + 70, visual, about 3 weeks after application
Procedure: as §1, §2
(§4) (notes: the term “seeds” also includes vegetative propagation forms such as, for example, rhizome pieces; abbreviations used: h light=hours of illumination, g of AS/ha=gram of active substance per hectare, l/ha=liter per hectare, S=sensitive, R=resistant) • 1. Pre-emergence action against weeds: seeds of various broad-leaved weed and weed grass biotypes (origins) were sown in a 8-13 cm diameter pot filled with natural soil of a standard field soil (loamy silt; non-sterile) and covered with a covering soil layer of about 1 cm. The pots were then cultivated in a greenhouse (12-16 h of light, temperature day 20-22° C., night 15-18° C.) until the time of application. The pots were treated at the BBCH stage 00-10 of the seeds/plants on a laboratory track sprayer with spray liquors comprising the compositions according to the invention, mixtures or components used individually, as WG, WP, EC or other formulations. The application rate for the spray application was 100-600 l of water/ha. After the treatment, the plants were returned to the greenhouses and, when required, treated with fertilizer and watered. • 2. Post-emergence action against weeds: seeds of various broad-leaved weed and weed grass biotypes (origins) were sown in a 8-13 cm diameter pot filled with natural soil of a standard field soil (loamy silt; non-sterile) and covered with a covering soil layer of about 1 cm. The pots were then cultivated in a greenhouse (12-16 h of light, temperature day 20-22° C., night 15-18° C.) until the time of application. […]

AVEFA = test: PE application with different irrigation, greenhouse (Table 4); format: in vivo, Avena fatua; details: g of AS/ha: (A) 90, (B) 300, (C) 140, (A)+(B)+(C) 90 + 300 + 140
Procedure: as §1, §2, §3

LOLPE = test: PE application vs pre-sowing application, greenhouse (Table 3); format: in vivo, Lolium perenne; details: g of AS/ha: (A) 90, (B) 300, (C) 140, (A)+(B)+(C) 90 + 300 + 140
Procedure: as §1, §2, §4

[4] = application 7 days prior to sowing

Compound	activity HORVS IU soil (crop plant) (HORVS [1])	activity HORVS IU/EC73 soil (crop plant) (HORVS [1])	activity HORVS (crop plant) (HORVS [2]; irrigation from above)	activity HORVS (crop plant) (HORVS [2]; irrigation from below)	activity STEME IU soil (STEME)	activity STEME IU/EC73 soil (STEME)	activity HORVS (crop plant) (HORVS [3]; PE application)	activity HORVS (crop plant) (HORVS [3]; [4])	activity VIOAR (VIOAR; PE application)	activity VIOAR (VIOAR; incorporation into the soil)	activity AVEFA (AVEFA; irrigation from above)	activity AVEFA (AVEFA; irrigation from below)	activity LOLPE (LOLPE; PE application)	activity LOLPE (LOLPE; [4])
CCCN(CCC)c1c([N+](=O)[O-])cc(C(F)(F)F)cc1[N+](=O)[O-] [(B) trifluralin, 2,6-dinitro-N,N-dipropyl-4-(trifluoromethyl)benzenamine]	0%	0%	90%	60%	50%	5%	0%	20%	50%	0%	25%	38%	90%	0%
CSc1nnc(C(C)(C)C)c(=O)n1N [(C) metribuzin, 4-amino-6-(1,1-dimethyl-ethyl)-3-(methylthio)-1,2,4-triazin-5-(4H)-one]	0%	0%	80%	10%	75%	5%	30%	20%	0%	10%	30%	30%	20%	80%
